In article PMC5458626 (American heart journal, 2017):
Entries after “also recorded” stand apart in the source; their conditions may differ.

Legend:
[1] = test system: Phosphodiesterase Type 5 (PDE5); conditions: major circulating metabolite; ref [15]–[17]; cited from earlier work
[2] = Plasma pharmacokinetics of udenafil and DA-8164; conditions: for DA-8164 Cmax: plasma metabolite
Adverse events = format: in vivo, human
Exercise stress test = format: in vivo, human; conditions: for Maximal VO2 at maximum exercise effort, follow-up measurement / VO2 at anaerobic threshold, follow-up measurement: day 5, mean ± SD
[3] = Echocardiography: myocardial performance index; format: in vivo, human; conditions: for Blood pool MPI, follow-up measurement / Tissue Doppler MPI, follow-up measurement: day 5; for Blood pool MPI, difference FU – BL: day 5 minus baseline (negative = improvement)
[4] = Vascular function by peripheral arterial tonometry; format: in vivo, human; conditions: for Augmentation Index adjusted to HR 75, follow-up measurement / Natural log of Reactive Hyperemic Index, follow-up measurement: day 5; for Natural log of Reactive Hyperemic Index, difference FU – BL: day 5 minus baseline (positive = improvement)
[5] = adult males, oral administration; ref [15]–[17]; cited from earlier work
[6] = metabolite, oral udenafil 37.5 mg bid for five days, mean (%CV), N=6
[7] = metabolite, oral udenafil 37.5 mg daily for five days, mean (%CV), N=6
[8] = metabolite, oral udenafil 125 mg daily for five days, mean (%CV), N=6
[9] = once-daily dosing, dose increased 3.3 times
[10] = oral udenafil 37.5 mg bid for five days, mean (%CV), N=6
[11] = oral udenafil 37.5 mg daily for five days, mean (%CV), N=6
[12] = oral udenafil 125 mg daily for five days, mean (%CV), N=6
[13] = twice-daily dosing, dose increased 2.3 times
[14] = total udenafil, all cohorts, N=30
[15] = udenafil 37.5 mg daily, 5 days, N=6
[16] = udenafil 37.5 mg twice daily, 5 days, N=6
[17] = udenafil 125 mg daily, 5 days, N=6
[18] = once-daily dosing, dose increased 3.3 times (37.5 to 125 mg)

Compound: CCCOc1ccc(S(N)(=O)=O)cc1-c1nc2c(CCC)nn(C)c2c(=O)[nH]1 [DA-8164]
- Potency of DA-8164 relative to udenafil [1]: equipotent
- DA-8164 T½ (harmonic mean half-life, 0.693/mean kel) ([2]; metabolite, oral udenafil 37.5 mg bid for five days, N=6): 14.1 h
- DA-8164 Cavg (AUC0−τ/τ) [2, 6]: 108 (55) ng/mL
- DA-8164 Tmax [2, 6]: 2.1 (78) h
- DA-8164 kel [2, 6]: 0.0491 (16) h
- DA-8164 AUC0−τ ([2]; metabolite, oral udenafil 37.5 mg bid for five days, τ = 12 hours, mean (%CV), N=6): 1290 (55) ng*h/mL
- DA-8164 T½ (harmonic mean half-life, 0.693/mean kel) ([2]; metabolite, oral udenafil 37.5 mg daily for five days, N=6): 14.6 h
- DA-8164 Cavg (AUC0−τ/τ) [2, 7]: 36.7 (43) ng/mL
- DA-8164 Tmax [2, 7]: 3.1 (51) h
- DA-8164 kel [2, 7]: 0.0474 (34) h
- DA-8164 T½ (harmonic mean half-life, 0.693/mean kel) ([2]; metabolite, oral udenafil 125 mg daily for five days, N=6): 14.5 h
- DA-8164 Cavg (AUC0−τ/τ) [2, 8]: 145 (14) ng/mL
- DA-8164 Tmax [2, 8]: 3.8 (35) h
- DA-8164 kel [2, 8]: 0.0480 (17) h
- Fold increase of mean DA-8164 AUC0−τ with udenafil dose [2, 9]: 4 fold
- Fold increase of mean DA-8164 Cmax with udenafil dose [2, 9]: 4.2 fold
- DA-8164 Cmax [2, 10]: 159 (52) ng/mL
- DA-8164 Cmax [2, 11]: 61.3 (46) ng/mL
- DA-8164 Cmax [2, 12]: 256 (13) ng/mL
- Fold increase of mean DA-8164 AUC0−τ with udenafil dose [2, 13]: 1.9 fold
- Fold increase of mean DA-8164 Cmax with udenafil dose [2, 13]: 1.8 fold

Compound: CCCOc1ccc(S(=O)(=O)NCCC2CCCN2C)cc1-c1nc2c(CCC)nn(C)c2c(=O)[nH]1 (stereo not shown) [udenafil]
- Subjects with facial flushing possibly or probably related to study medication (Adverse events; 30 subjects, all cohorts): 33%
- Subjects with nasal congestion possibly or probably related to study medication (Adverse events; 30 subjects, all cohorts): 20%
- Subjects with nausea possibly or probably related to study medication (Adverse events; 30 subjects, all cohorts): 10%
- Dose dependence of reported AEs (Adverse events; across the five dosing cohorts): did not increase with increasing dose
- Subjects with headache (most common AE) (Adverse events; of 30 subjects exposed to udenafil, all cohorts): 19 subjects
- Subjects with headache possibly or probably related to study drug (Adverse events; of the 30 subjects, all cohorts): 63%
- Drug-related serious adverse events (Adverse events; study period, all dosing cohorts): No drug-related serious AEs; also recorded: no drug-related serious adverse events were reported
- Subjects who experienced drug-related (probably or possibly) adverse events: Headache (Adverse events; [14]): 19 (63) n (%)
- Subjects who experienced drug-related adverse events: Abdominal discomfort (Adverse events; [14]): 2 (7) n (%)
- Subjects who experienced drug-related adverse events: Back pain (Adverse events; [14]): 1 (3) n (%)
- Subjects who experienced drug-related adverse events: Flushing (Adverse events; [14]): 10 (33) n (%)
- Subjects who experienced drug-related adverse events: Nasal congestion (Adverse events; [14]): 6 (20) n (%)
- Subjects who experienced drug-related adverse events: Nausea (Adverse events; [14]): 3 (10) n (%)
- Subjects who experienced drug-related (probably or possibly) adverse events: Headache (Adverse events; [15]): 3 (50) n (%)
- Subjects who experienced drug-related adverse events: Abdominal discomfort (Adverse events; [15]): 0 (0) n (%)
- Subjects who experienced drug-related adverse events: Back pain (Adverse events; [15]): 0 (0) n (%)
- Subjects who experienced drug-related adverse events: Flushing (Adverse events; [15]): 1 (17) n (%)
- Subjects who experienced drug-related adverse events: Nasal congestion (Adverse events; [15]): 1 (17) n (%)
- Subjects who experienced drug-related adverse events: Nausea (Adverse events; [15]): 1 (17) n (%)
- Subjects who experienced drug-related adverse events: Spontaneous penile erection (Adverse events; udenafil 37.5 mg daily, 5 days, N=6, male subjects only): 0 (0) n (%)
- Subjects who experienced drug-related (probably or possibly) adverse events: Headache (Adverse events; [16]): 4 (67) n (%)
- Subjects who experienced drug-related adverse events: Abdominal discomfort (Adverse events; [16]): 0 (0) n (%)
- Subjects who experienced drug-related adverse events: Back pain (Adverse events; [16]): 0 (0) n (%)
- Subjects who experienced drug-related adverse events: Flushing (Adverse events; [16]): 2 (33) n (%)
- Subjects who experienced drug-related adverse events: Nasal congestion (Adverse events; [16]): 2 (33) n (%)
- Subjects who experienced drug-related adverse events: Nausea (Adverse events; [16]): 1 (17) n (%)
- Subjects who experienced drug-related (probably or possibly) adverse events: Headache (Adverse events; [17]): 4 (67) n (%)
- Subjects who experienced drug-related adverse events: Abdominal discomfort (Adverse events; [17]): 1 (17) n (%)
- Subjects who experienced drug-related adverse events: Back pain (Adverse events; [17]): 0 (0) n (%)
- Subjects who experienced drug-related adverse events: Flushing (Adverse events; [17]): 1 (17) n (%)
- Subjects who experienced drug-related adverse events: Nasal congestion (Adverse events; [17]): 1 (17) n (%)
- Subjects who experienced drug-related adverse events: Nausea (Adverse events; [17]): 0 (0) n (%)
- Effect on exercise performance (baseline to day 5) (Exercise stress test; all dosing cohorts, 5 days): did not improve in any of the dosing cohorts
- Maximal VO2 at maximum exercise effort, follow-up measurement (Exercise stress test; udenafil 37.5 mg BID, N=6): 28.8 ± 8.1 mL/min/kg
- VO2 at anaerobic threshold, follow-up measurement (Exercise stress test; udenafil 37.5 mg BID, N=6): 18.1 ± 3.0 mL/min/kg
- Maximal VO2 at maximum exercise effort, follow-up measurement (Exercise stress test; udenafil 37.5 mg QD, N=5): 24.7 ± 6.7 mL/min/kg
- VO2 at anaerobic threshold, follow-up measurement (Exercise stress test; udenafil 37.5 mg QD, N=5): 16.3 ± 2.0 mL/min/kg
- Maximal VO2 at maximum exercise effort, follow-up measurement (Exercise stress test; udenafil 125 mg QD, N=6): 28.6 ± 3.8 mL/min/kg
- VO2 at anaerobic threshold, follow-up measurement (Exercise stress test; udenafil 125 mg QD, N=6): 20.0 ± 3.2 mL/min/kg
- Blood pool MPI, follow-up measurement ([3]; all udenafil subjects, N=28): 0.52±0.17
- Tissue Doppler MPI, follow-up measurement ([3]; all udenafil subjects, N=28): 0.71±0.20
- Blood pool MPI, follow-up measurement ([3]; udenafil 37.5 mg BID, N=6): 0.49±0.087
- Tissue Doppler MPI, follow-up measurement ([3]; udenafil 37.5 mg BID, N=6): 0.73±0.23
- Blood pool MPI, follow-up measurement ([3]; udenafil 37.5 mg QD, N=5): 0.50±0.19
- Tissue Doppler MPI, follow-up measurement ([3]; udenafil 37.5 mg QD, N=5): 0.64±0.21
- Blood pool MPI, follow-up measurement ([3]; udenafil 125 mg QD, N=5): 0.70±0.20
- Tissue Doppler MPI, follow-up measurement ([3]; udenafil 125 mg QD, N=5): 0.82±0.27
- Blood pool MPI, difference FU – BL ([3]; all udenafil subjects, N=27): −0.059±0.13
- Blood pool MPI, difference FU – BL ([3]; udenafil 37.5 mg BID, N=6): −0.003±0.10
- Blood pool MPI, difference FU – BL ([3]; udenafil 37.5 mg QD, N=5): −0.052±0.17
- Blood pool MPI, difference FU – BL ([3]; udenafil 125 mg QD, N=5): −0.054±0.18
- Effect on lnRHI and AI (baseline to day 5) ([4]; all dosing cohorts, 5 days): no discernible differences between paired baseline and follow-up measures of lnRHI or AI in any dosing cohort
- Augmentation Index adjusted to HR 75, follow-up measurement ([4]; all udenafil subjects, N=28): −2.18±13.91
- Natural log of Reactive Hyperemic Index, follow-up measurement ([4]; all udenafil subjects, N=28): 0.49±0.28
- Augmentation Index adjusted to HR 75, follow-up measurement ([4]; udenafil 37.5 mg BID, N=6): 2.89±7.11
- Natural log of Reactive Hyperemic Index, follow-up measurement ([4]; udenafil 37.5 mg BID, N=6): 0.53±0.29
- Augmentation Index adjusted to HR 75, follow-up measurement ([4]; udenafil 37.5 mg QD, N=6): −0.62±23.82
- Natural log of Reactive Hyperemic Index, follow-up measurement ([4]; udenafil 37.5 mg QD, N=6): 0.51±0.26
- Augmentation Index adjusted to HR 75, follow-up measurement ([4]; udenafil 125 mg QD, N=6): 1.90±8.65
- Natural log of Reactive Hyperemic Index, follow-up measurement ([4]; udenafil 125 mg QD, N=6): 0.52±0.34
- Natural log of Reactive Hyperemic Index, difference FU – BL ([4]; all udenafil subjects, N=27): −0.02±0.30
- Natural log of Reactive Hyperemic Index, difference FU – BL ([4]; udenafil 37.5 mg BID, N=6): −0.07±0.17
- Natural log of Reactive Hyperemic Index, difference FU – BL ([4]; udenafil 37.5 mg QD, N=6): 0.03±0.47
- Natural log of Reactive Hyperemic Index, difference FU – BL ([4]; udenafil 125 mg QD, N=6): −0.10±0.38
- Udenafil terminal half-life [5]: ~16 h
- Dose dependence of oral clearance (CL/F) ([2]; across the five dosing cohorts): decreased with increasing dose
- Cmax ([2]; human, plasma, po, 37.5 mg, Udenafil Cmax, oral udenafil 37.5 mg bid for five days, mean (%CV), N=6): 152 ng/mL
- Effect of gender on dose-normalized Cmax and Cavg ([2]; male (N=17) vs female (N=13), oral udenafil 5 days): not different for the male and female patients
- Fold increase of mean udenafil AUC0−τ with dose [2, 18]: 4 fold
- Fold increase of mean udenafil Cmax with dose [2, 18]: 4.6 fold
- Udenafil CL/F (oral clearance) [2, 10]: 39.9 (36) L/h
- Udenafil CL/F (oral clearance) [2, 11]: 53.3 (40) L/h
- Udenafil CL/F (oral clearance) [2, 12]: 43.3 (39) L/h
